Values quoted from earlier work in patent publication US7507425B2, “Method for the treatment of cachexia” (The Quigley Corporation, priority 2005, dated 2009).

System: nitric oxide synthase (NOS)
Conditions: Northern-blot and immunoblotting; macrophages activated with vs without curcumin

SMILES: COc1cc(/C=C/C(=O)CC(=O)/C=C/c2ccc(O)c(OC)c2)ccc1O [curcumin]
- levels of mRNA and 130-k Da protein of inducible NOS: significantly reduced levels
